Experiments:
[1] = DRUGMATRIX: ATPase, Na+/K+ enzyme inhibition (substrate: ATP); type: tissue-based, Sus scrofa, Heart; details: Not Active = under 50% inhibition at 10 µM
Substance-K receptor = target: T1, Substance-K receptor (Homo sapiens, UniProt P21452); type: cell membranes, CHO, Membrane; details: cho; note: in other assays of this panel Not Active means under 50% inhibition at 10 µM
T1 sequence (P21452 whole entry): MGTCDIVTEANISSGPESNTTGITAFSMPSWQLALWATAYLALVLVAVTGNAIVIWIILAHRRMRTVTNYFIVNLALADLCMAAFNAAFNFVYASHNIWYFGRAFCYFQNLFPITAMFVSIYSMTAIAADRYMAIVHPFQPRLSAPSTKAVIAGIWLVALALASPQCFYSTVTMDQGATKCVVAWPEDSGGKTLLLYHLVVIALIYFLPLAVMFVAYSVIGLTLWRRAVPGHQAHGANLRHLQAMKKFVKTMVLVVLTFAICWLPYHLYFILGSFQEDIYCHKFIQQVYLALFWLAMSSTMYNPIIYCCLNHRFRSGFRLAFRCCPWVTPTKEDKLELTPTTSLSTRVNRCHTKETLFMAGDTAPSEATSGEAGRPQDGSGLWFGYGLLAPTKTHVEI

Thromboxane-A synthase = target: T2, Thromboxane-A synthase (Homo sapiens, UniProt P24557); experiment: biochemical; type: tissue-based, Platelet;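 note: enzyme inhibition assay with PGH2 supplied as substrate; in other assays of this panel Not Active means under 50% inhibition at 10 µM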
T2 sequence (P24557 whole entry): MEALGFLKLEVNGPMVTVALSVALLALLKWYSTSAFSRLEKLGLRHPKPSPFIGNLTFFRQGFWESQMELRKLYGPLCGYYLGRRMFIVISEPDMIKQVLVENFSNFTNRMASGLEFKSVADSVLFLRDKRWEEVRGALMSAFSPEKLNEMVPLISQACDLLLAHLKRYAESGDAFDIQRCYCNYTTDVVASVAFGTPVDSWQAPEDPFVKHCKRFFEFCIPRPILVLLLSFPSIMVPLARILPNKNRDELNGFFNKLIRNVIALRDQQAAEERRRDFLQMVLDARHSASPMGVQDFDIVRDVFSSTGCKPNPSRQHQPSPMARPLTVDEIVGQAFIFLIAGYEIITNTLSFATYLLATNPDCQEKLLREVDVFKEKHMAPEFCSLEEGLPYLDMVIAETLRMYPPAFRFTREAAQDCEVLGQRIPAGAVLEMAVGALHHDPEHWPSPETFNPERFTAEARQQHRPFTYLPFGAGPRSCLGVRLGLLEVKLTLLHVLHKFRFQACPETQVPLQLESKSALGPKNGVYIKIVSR

[2] = target: T3, C-X-C chemokine receptor type 1 (Homo sapiens, UniProt P25024); note: in other assays of this panel Not Active means under 50% inhibition at 10 µM
T3 sequence (P25024 whole entry): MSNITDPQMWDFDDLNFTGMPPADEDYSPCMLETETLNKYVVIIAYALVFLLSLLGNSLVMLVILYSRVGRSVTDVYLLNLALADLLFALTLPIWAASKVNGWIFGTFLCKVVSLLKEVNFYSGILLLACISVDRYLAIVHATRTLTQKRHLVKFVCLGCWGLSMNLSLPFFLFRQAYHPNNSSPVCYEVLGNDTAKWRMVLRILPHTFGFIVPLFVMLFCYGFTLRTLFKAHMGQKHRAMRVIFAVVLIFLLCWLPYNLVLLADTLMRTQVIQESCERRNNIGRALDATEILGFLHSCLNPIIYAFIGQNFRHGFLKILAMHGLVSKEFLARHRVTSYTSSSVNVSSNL

Melanocortin receptor 3 = Melanocortin receptor 3 (Homo sapiens, UniProt P41968); type: cell membranes, Membrane; details: hek293; note: in other assays of this panel Not Active means under 50% inhibition at 10 µM
[3] = DRUGMATRIX: Nicotinic Acetylcholine radioligand binding (ligand: [125I] Epibatidine); type: cell membranes, Membrane; details: imr-32; Not Active = under 50% inhibition at 10 µM
[4] = target: cGMP-specific 3',5'-cyclic phosphodiesterase (Homo sapiens, UniProt O76074); experiment: DRUGMATRIX: Phosphodiesterase PDE5 enzyme inhibition (substrate: [3H]cGMP + cGMP); type: tissue-based, Platelet; details: platelet; Not Active = under 50% inhibition at 10 µM
[5] = target: Protein phosphatase 3 catalytic subunit alpha (Homo sapiens, UniProt Q08209); design: species or system Escherichia coli
Cytochrome P450 1A2 = target: T4, Cytochrome P450 1A2 (Homo sapiens, UniProt P05177); details: bti-tn-5b1-4; note: in other assays of this panel Not Active means under 50% inhibition at 10 µM
T4 sequence (P05177 whole entry): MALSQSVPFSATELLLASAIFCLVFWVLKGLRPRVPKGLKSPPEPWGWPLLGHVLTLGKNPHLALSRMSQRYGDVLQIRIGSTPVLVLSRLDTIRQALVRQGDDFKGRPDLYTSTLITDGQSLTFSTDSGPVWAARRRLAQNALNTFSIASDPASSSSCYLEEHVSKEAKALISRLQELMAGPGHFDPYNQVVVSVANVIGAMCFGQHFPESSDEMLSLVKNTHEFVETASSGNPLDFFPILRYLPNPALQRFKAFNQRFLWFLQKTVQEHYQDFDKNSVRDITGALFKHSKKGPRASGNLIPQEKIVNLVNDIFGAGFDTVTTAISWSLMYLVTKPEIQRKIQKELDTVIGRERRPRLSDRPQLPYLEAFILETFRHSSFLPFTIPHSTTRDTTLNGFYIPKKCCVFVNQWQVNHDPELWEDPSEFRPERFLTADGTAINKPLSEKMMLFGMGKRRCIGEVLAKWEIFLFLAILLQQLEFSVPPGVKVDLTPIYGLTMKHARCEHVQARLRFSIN

Cytochrome P450 2A6 = target: T5, Cytochrome P450 2A6 (Homo sapiens, UniProt P11509); details: bti-tn-5b1-4; note: in other assays of this panel Not Active means under 50% inhibition at 10 µM
T5 sequence (P11509 whole entry): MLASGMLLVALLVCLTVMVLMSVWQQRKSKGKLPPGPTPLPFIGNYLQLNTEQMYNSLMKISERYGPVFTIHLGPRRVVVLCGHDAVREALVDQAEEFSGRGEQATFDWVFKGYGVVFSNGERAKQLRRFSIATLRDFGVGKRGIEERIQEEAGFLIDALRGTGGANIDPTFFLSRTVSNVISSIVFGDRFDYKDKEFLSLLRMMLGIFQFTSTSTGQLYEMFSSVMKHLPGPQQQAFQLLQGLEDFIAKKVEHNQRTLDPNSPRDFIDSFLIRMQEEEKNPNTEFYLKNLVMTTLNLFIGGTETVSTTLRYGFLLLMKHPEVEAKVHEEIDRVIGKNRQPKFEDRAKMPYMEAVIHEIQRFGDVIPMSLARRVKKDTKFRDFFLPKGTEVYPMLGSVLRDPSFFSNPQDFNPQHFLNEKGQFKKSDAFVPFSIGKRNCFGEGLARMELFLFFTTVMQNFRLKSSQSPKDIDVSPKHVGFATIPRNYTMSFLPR

Chain of Melanocortin receptor 3 (P41968 whole entry): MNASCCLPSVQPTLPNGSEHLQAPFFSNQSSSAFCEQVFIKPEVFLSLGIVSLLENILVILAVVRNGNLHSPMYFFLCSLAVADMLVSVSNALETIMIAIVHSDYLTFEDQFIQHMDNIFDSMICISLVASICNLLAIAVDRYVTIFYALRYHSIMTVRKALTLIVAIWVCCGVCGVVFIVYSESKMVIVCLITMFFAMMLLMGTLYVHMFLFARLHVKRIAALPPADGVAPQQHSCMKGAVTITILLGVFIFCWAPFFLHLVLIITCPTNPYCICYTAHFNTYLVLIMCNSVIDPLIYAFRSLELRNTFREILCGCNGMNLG

CCc1ccc(C(=O)C(C)CN2CCCCC2)cc1 (stereo not given) [EPERISONE]
IC50 [1]: Not Active | Ki [1]: Not Active | IC50 (Substance-K receptor): Not Active | IC50 (Thromboxane-A synthase; platelet): Not Active | IC50 [2]: Not Active | IC50 (Melanocortin receptor 3): Not Active | IC50 [3]: Not Active | Ki [3]: Not Active | IC50 [4]: Not Active | IC50 [5]: Not Active | IC50 (Cytochrome P450 1A2): Not Active | Ki (Cytochrome P450 1A2): Not Active | IC50 (Cytochrome P450 2A6): Not Active | Ki (Cytochrome P450 2A6): Not Active

C=C1CC[C@H](O)C/C1=C/C=C1\CCC[C@]2(C)[C@@H]([C@H](C)/C=C/[C@H](C)C(C)C)CC[C@@H]12 [ERGOCALCIFEROL]
IC50 [1]: Not Active | Ki [1]: Not Active | IC50 (Substance-K receptor): Not Active | IC50 (Thromboxane-A synthase; platelet): Not Active | IC50 [2]: Not Active | IC50 (Melanocortin receptor 3): Not Active | IC50 [3]: Not Active | Ki [3]: Not Active | IC50 [4]: Not Active | IC50 [5]: Not Active | IC50 (Cytochrome P450 1A2): Not Active | Ki (Cytochrome P450 1A2): Not Active | IC50 (Cytochrome P450 2A6): Not Active | Ki (Cytochrome P450 2A6): Not Active

CN1C[C@H](C(=O)N[C@]2(C)O[C@@]3(O)[C@@H]4CCCN4C(=O)[C@H](Cc4ccccc4)N3C2=O)C=C2c3cccc4[nH]cc(c34)C[C@H]21 [ERGOTAMINE]
IC50 [1]: Not Active | Ki [1]: Not Active | IC50 (Substance-K receptor): Not Active | IC50 (Thromboxane-A synthase; read-out: IC50): 3.06 µM | IC50 [2]: Not Active | IC50 (Melanocortin receptor 3): Not Active | IC50 [3]: Not Active | Ki [3]: Not Active | IC50 [4]: Not Active | IC50 [5]: Not Active | IC50 (Cytochrome P450 1A2): Not Active | Ki (Cytochrome P450 1A2): Not Active | IC50 (Cytochrome P450 2A6): Not Active | Ki (Cytochrome P450 2A6): Not Active

CCc1cccc2c3c([nH]c12)C(CC)(CC(=O)O)OCC3 (stereo not given) [ETODOLAC]
IC50 [1]: Not Active | Ki [1]: Not Active | IC50 (Substance-K receptor): Not Active | IC50 (Thromboxane-A synthase; platelet): Not Active | IC50 [2]: Not Active | IC50 (Melanocortin receptor 3): Not Active | IC50 [3]: Not Active | Ki [3]: Not Active | IC50 [4]: Not Active | IC50 [5]: Not Active | IC50 (Cytochrome P450 1A2): Not Active | Ki (Cytochrome P450 1A2): Not Active | IC50 (Cytochrome P450 2A6): Not Active | Ki (Cytochrome P450 2A6): Not Active

Cc1c(-c2ccccc2)oc2c(C(=O)OCCN3CCCCC3)cccc2c1=O [FLAVOXATE]
IC50 [1]: Not Active | Ki [1]: Not Active | IC50 (Substance-K receptor): Not Active | IC50 (Thromboxane-A synthase; platelet): Not Active | IC50 [2]: Not Active | IC50 (Melanocortin receptor 3): Not Active | IC50 [3]: Not Active | Ki [3]: Not Active | IC50 [4]: Not Active | IC50 [5]: Not Active | IC50 (Cytochrome P450 1A2): Not Active | Ki (Cytochrome P450 1A2): Not Active | IC50 (Cytochrome P450 2A6): Not Active | Ki (Cytochrome P450 2A6): Not Active

Nc1nc(=O)[nH]cc1F [FLUCYTOSINE]
IC50 [1]: Not Active | Ki [1]: Not Active | IC50 (Substance-K receptor): Not Active | IC50 (Thromboxane-A synthase; platelet): Not Active | IC50 [2]: Not Active | IC50 (Melanocortin receptor 3): Not Active | IC50 [3]: Not Active | Ki [3]: Not Active | IC50 [4]: Not Active | IC50 [5]: Not Active | IC50 (Cytochrome P450 1A2): Not Active | Ki (Cytochrome P450 1A2): Not Active | IC50 (Cytochrome P450 2A6): Not Active | Ki (Cytochrome P450 2A6): Not Active

O=C1OC2(c3ccc(O)cc3Oc3cc(O)ccc32)c2ccccc21 [FLUORESCEIN]
IC50 [1]: Not Active | Ki [1]: Not Active | IC50 (Substance-K receptor): Not Active | IC50 (Thromboxane-A synthase; platelet): Not Active | IC50 [2]: Not Active | IC50 (Melanocortin receptor 3): Not Active | IC50 [3]: Not Active | Ki [3]: Not Active | IC50 [4]: Not Active | IC50 [5]: Not Active | IC50 (Cytochrome P450 1A2): Not Active | Ki (Cytochrome P450 1A2): Not Active | IC50 (Cytochrome P450 2A6): Not Active | Ki (Cytochrome P450 2A6): Not Active

CC(=O)[C@@]1(O)CC[C@H]2[C@@H]3C[C@H](C)C4=CC(=O)C=C[C@]4(C)[C@@]3(F)[C@@H](O)C[C@@]21C [FLUOROMETHOLONE]
IC50 [1]: Not Active | Ki [1]: Not Active | IC50 (Substance-K receptor): Not Active | IC50 (Thromboxane-A synthase; platelet): Not Active | IC50 [2]: Not Active | IC50 (Melanocortin receptor 3): Not Active | IC50 [3]: Not Active | Ki [3]: Not Active | IC50 [4]: Not Active | IC50 [5]: Not Active | IC50 (Cytochrome P450 1A2): Not Active | Ki (Cytochrome P450 1A2): Not Active | IC50 (Cytochrome P450 2A6): Not Active | Ki (Cytochrome P450 2A6): Not Active

O=c1[nH]cc(F)c(=O)[nH]1 [FLUOROURACIL]
IC50 [1]: Not Active | Ki [1]: Not Active | IC50 (Substance-K receptor): Not Active | IC50 (Thromboxane-A synthase; platelet): Not Active | IC50 [2]: Not Active | IC50 (Melanocortin receptor 3): Not Active | IC50 [3]: Not Active | Ki [3]: Not Active | IC50 [4]: Not Active | IC50 [5]: Not Active | IC50 (Cytochrome P450 1A2): Not Active | Ki (Cytochrome P450 1A2): Not Active | IC50 (Cytochrome P450 2A6): Not Active | Ki (Cytochrome P450 2A6): Not Active

CC(C)n1c(/C=C/C(O)CC(O)CC(=O)O)c(-c2ccc(F)cc2)c2ccccc21 (stereo not given) [FLUVASTATIN]
IC50 [1]: Not Active | Ki [1]: Not Active | IC50 (Substance-K receptor): Not Active | IC50 (Thromboxane-A synthase; platelet): Not Active | IC50 [2]: Not Active | IC50 (Melanocortin receptor 3): Not Active | IC50 [3]: Not Active | Ki [3]: Not Active | IC50 [4]: Not Active | IC50 [5]: Not Active | IC50 (Cytochrome P450 1A2): Not Active | Ki (Cytochrome P450 1A2): Not Active | IC50 (Cytochrome P450 2A6): Not Active | Ki (Cytochrome P450 2A6): Not Active
